Read-outs that look alike come from different tables or passages of the source.
How the values were obtained:
[1] = target: Active Mouse ERK2 (mERK2) (Mus musculus (Mouse), UniProt P63085); experiment: Active Mouse ERK2 (mERK2) Activity Assay (IMAP-FP); format: biochemical
Experimental: Active Mouse ERK2 (mERK2) Activity Assay:
Activated ERK2 activity was determined in an IMAP-FP assay (Molecular Devices). […] Phosphorylation reactions were allowed to proceed for 45 minutes and were immediately quenched by the addition of 60 μL IMAP detection beads (1:1000 dilutions) in IMAP binding buffer (Molecular Devices) with 24 mM NaCl. Plates were read on EnVision reader after 60 minutes binding equilibration using Fluorescence Polarization protocol (Perkin Elmer).

[2] = target: Active Human ERK2 (hERK2) (Homo sapiens (Human), UniProt P28482); experiment: Active Human ERK2 (hERK2) Activity Assay (IMAP-FP); format: biochemical; conditions: read-out: ERK 2 Human average IC50
How it was run: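 Reaction contains 0.5 nM activated hERK2, 900 nM unlabeled plus 80 nM labeled peptide and 30 μM ATP, run 60 min. Quenched with IMAP binding beads in buffer with 24 mM NaCl; fluorescence polarization read after 60 min binding equilibration.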

[3] = phosphorylated active mERK2, 30 uM ATP, read-out: ERK 2 MAPK1 Mouse IC50
[4] = phosphorylated active hERK2, 30 μM ATP, average
[5] = read-out: AERK2 IC50 (Active mouse ERK2 Activity Assay)

Sequence of Active Human ERK2 (hERK2) (P28482 whole entry): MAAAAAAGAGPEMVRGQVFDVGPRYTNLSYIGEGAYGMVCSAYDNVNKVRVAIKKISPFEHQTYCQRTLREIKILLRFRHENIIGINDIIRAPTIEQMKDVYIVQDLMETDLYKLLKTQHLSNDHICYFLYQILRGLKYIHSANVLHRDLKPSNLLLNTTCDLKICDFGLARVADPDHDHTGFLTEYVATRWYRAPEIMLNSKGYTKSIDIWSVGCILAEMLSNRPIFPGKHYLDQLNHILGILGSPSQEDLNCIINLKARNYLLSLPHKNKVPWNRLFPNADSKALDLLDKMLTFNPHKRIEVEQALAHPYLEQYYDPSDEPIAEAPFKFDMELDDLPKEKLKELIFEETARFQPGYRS
Sequence of Active Mouse ERK2 (mERK2) (P63085 whole entry): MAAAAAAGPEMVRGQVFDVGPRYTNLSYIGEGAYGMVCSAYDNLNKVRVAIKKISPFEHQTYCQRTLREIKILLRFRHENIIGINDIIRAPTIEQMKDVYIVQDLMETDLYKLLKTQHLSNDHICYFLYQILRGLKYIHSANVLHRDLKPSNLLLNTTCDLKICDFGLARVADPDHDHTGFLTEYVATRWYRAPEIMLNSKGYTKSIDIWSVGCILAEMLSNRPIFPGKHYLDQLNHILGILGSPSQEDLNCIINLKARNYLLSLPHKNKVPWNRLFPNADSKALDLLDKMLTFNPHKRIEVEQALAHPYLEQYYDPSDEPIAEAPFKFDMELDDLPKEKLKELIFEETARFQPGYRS

SMILES	IC50 [1, 3] [nM]	IC50 [2, 4] [nM]	IC50 [1, 5] [nM]	IC50 [2] [nM]
COCCCc1n[nH]c2cc(NC(=O)N[C@H](C)c3ccccc3)ncc12 [Example 21, (R)-1-(3-(3-methoxypropyl)-1H-pyrazolo[4,3-c]pyridin-6-yl)-3-(1-phenylethyl)urea]	2.23	2.53		
Cc1cc(-c2n[nH]c3cc(NC(=O)NCc4ccccc4)ncc23)ccn1 [Example 9]	0.222		0.1 to 1.2	0.851
COc1cccc(F)c1CN1CCC[C@@H](NC(=O)Nc2cc3[nH]nc(-c4ccnc(C)c4)c3cn2)C1 [Example 2, 1-[(3R)-1-(2-fluoro-6-methoxybenzyl)-piperidin-3-yl]-3-[3-(2-methylpyridin-4-yl)-1H-pyrazolo[4,3-c]pyridin-6-yl]urea]	0.152	0.286	0.1 to 1.2	
C[C@@H](NC(=O)Nc1cc2[nH]nc(C3CC3)c2cn1)c1ccccc1 [Example 25, 1-(3-cyclopropyl-1H-pyrazolo[4,3-c]pyridin-6-yl)-3-[(1R)-1-phenylethyl]urea]		1.96	0.1 to 1.2	
Cc1cc(-c2n[nH]c3cc(NC(=O)N[C@H](CO)c4ccccc4)ncc23)ccn1 [Example 15, 1-[(1S)-2-hydroxy-1-phenylethyl]-3-[3-(2-methylpyridin-4-yl)-1H-pyrazolo[4,3-c]pyridin-6-yl]urea]		0.392	0.1 to 1.2	
CCCc1n[nH]c2cc(NC(=O)N[C@H](C)c3ccccc3)ncc12 [Example 22, (R)-1-(1-phenylethyl)-3-(3-propyl-1H-pyrazolo[4,3-c]pyridin-6-yl)urea]	0.919	1.61	0.1 to 1.2	
Cc1cc(-c2n[nH]c3cc(NC(=O)N[C@H](C)c4ccc(Cl)cc4)ncc23)ccn1 [Example 19, 1-[(1R)-1-(4-chlorophenyl)ethyl]-3-[3-(2-methylpyridin-4-yl)-1H-pyrazolo[4,3-c]pyridin-6-yl]urea]	0.296	0.556	0.1 to 1.2	
